In publication PMC13372822 (The EMBO Journal, 2026):
Where a chain is given by its changes, count along the chain named.

Key:
SUCR1 = target: T1, SUCR1 (Homo sapiens, UniProt Q9BXA5); assay: Calcium mobilization assay, wild-type SUCR1 in HEK293 stably expressing Gα16; type: cell-based; details: for activation of SUCR1: in words;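 as to Emax: percent of the maximal response to succinate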
T1 construct: The full-length human SUCR1 and mutations were fused after the HA signal peptide and Flag tag; HA signal peptide (N); Flag (N); expressed in transfected cells; host or cells: HEK293 stably expressing Gα16 (pcDNA6.0, transient electroporation)
T1 sequence (Q9BXA5 1-334): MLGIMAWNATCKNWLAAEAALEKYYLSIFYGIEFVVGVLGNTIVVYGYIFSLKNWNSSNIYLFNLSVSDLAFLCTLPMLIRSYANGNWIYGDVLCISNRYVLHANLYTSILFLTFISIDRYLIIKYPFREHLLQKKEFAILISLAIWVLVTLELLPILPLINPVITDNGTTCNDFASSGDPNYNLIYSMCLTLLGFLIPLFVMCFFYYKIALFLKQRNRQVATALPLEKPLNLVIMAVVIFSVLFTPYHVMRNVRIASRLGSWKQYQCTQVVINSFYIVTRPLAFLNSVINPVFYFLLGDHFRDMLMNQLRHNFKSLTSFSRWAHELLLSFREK
Experimental: (§1) The full-length human SUCR1 and mutations were fused after the HA signal peptide and Flag tag. The constructs were cloned into pcDNA6.0 vector for HEK293 system.
(§2) HEK293 cells were obtained from ATCC (Manassas, VA, USA) and cultured in DMEM supplemented with 10% (v/v) FBS, 100 mg/L penicillin, and 100 mg/L streptomycin in 5% CO2 at 37 °C. For transient transfection, ~2.5 × 10^6 cells were mixed with 2 µg plasmids in 200 µL transfection buffer, and electroporation was carried out with a Scientz-2C electroporation apparatus (Scientz Biotech, Ningbo, China). The experiments were carried out 24 h after transfection. HEK293 cell lines stably expressing Gα16 were constructed by our laboratory.
(§3) For OXGR1, plasmids were transfected into HEK293 (other receptors were transfected into HEK293 stably expressing Gα16) and seeded at a density of 4 × 10^4 per well into 96-well culture plates and incubated for 24 h at 37 °C in 5% CO2. The next day, Cells were incubated with 2 μM/L Fluo-4 AM in HBSS supplemented with 5.6 mM/L D-glucose and 250 μM/L sulfinpyrazone at 37 °C for 45 min. […] Three independent measurements were repeated, i.e., three different transfections, with three technical replicates performed for each experiment. EC50 and Emax values for each curve were calculated by Prism 8.0 software (GraphPad Software).

[1] = target: T2, SUCR1 mutants (variant named in the endpoint) (Homo sapiens, UniProt Q9BXA5, F285A/L102F); assay: Calcium mobilization assay, SUCR1 mutants in HEK293 stably expressing Gα16; type: cell-based;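 as to Emax: percent of the maximal response to succinate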
T2 construct: The full-length human SUCR1 and mutations were fused after the HA signal peptide and Flag tag; HA signal peptide (N); Flag (N); expressed in transfected cells; host or cells: HEK293 stably expressing Gα16 (pcDNA6.0, transient electroporation)
T2 sequence (Q9BXA5 1-334 L102F/F285A): T1 sequence (Q9BXA5 1-334) with L102F, F285A
Experimental: as §1, §2, §3

[2] = target: T3, SUCR1 mutants (variant named in the endpoint) (Homo sapiens, UniProt Q9BXA5, I157M); assay: as above; type: cell-based
T3 construct: The full-length human SUCR1 and mutations were fused after the HA signal peptide and Flag tag; HA signal peptide (N); Flag (N); expressed in transfected cells; host or cells: HEK293 stably expressing Gα16 (pcDNA6.0, transient electroporation)
T3 sequence (Q9BXA5 1-334 I157M): T1 sequence (Q9BXA5 1-334) with I157M
Experimental: as §1, §2, §3

[3] = tested on: OXGR1 mutants (variant named in the endpoint); assay: Calcium mobilization assay, OXGR1 mutants in HEK293; details: for Emax: each ligand normalized to WT (100%); for increase in potency by F113W mutation: OXGR1 F113W versus WT; for activation of OXGR1 L299P: in words;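 as to all read-outs here: human OXGR1 variants transiently expressed in HEK293 cells, with intracellular calcium read out by Fluo-4 AM fluorescence, measured 24 h after transfection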
Experimental: as §1, §2, §3

[4] = target: T4, SUCR1 mutants (variant named in the endpoint) (Homo sapiens, UniProt Q9BXA5, Y248F); assay: Calcium mobilization assay, SUCR1 mutants in HEK293 stably expressing Gα16; type: cell-based;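 as to Emax: percent of the maximal response to succinate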
T4 construct: The full-length human SUCR1 and mutations were fused after the HA signal peptide and Flag tag; HA signal peptide (N); Flag (N); expressed in transfected cells; host or cells: HEK293 stably expressing Gα16 (pcDNA6.0, transient electroporation)
T4 sequence (Q9BXA5 1-334 Y248F): T1 sequence (Q9BXA5 1-334) with Y248F
Experimental: as §1, §2, §3

O=C(O)CCC(=O)C(=O)O [AKG, α-ketoglutarate]
Emax (SUCR1; HEK293): 3.5 ± 3%
activation of SUCR1 (SUCR1): no cross-reactivity
Emax ([1]; HEK293): 5.5 ± 1%
Emax ([2]; HEK293): 0.43 ± 0.8%

C=C(CC(=O)O)C(=O)O [ITA, itaconate]
EC50 ([3]; OXGR1 D185A): > 1 mM
Emax ([3]; OXGR1 D185A): 4.9± 2 WT%
EC50 ([3]; OXGR1 E97A): > 1 mM
Emax ([3]; OXGR1 E97A): 47± 3 WT%
EC50 ([3]; OXGR1 F113A): > 1 mM
Emax ([3]; OXGR1 F113A): 26± 3 WT%
EC50 ([3]; OXGR1 F113W): 0.0213 ± 0.002 mM
increase in potency by F113W mutation [3]: ~ 2 fold
Emax ([3]; OXGR1 F113W): 86± 2 WT%
EC50 ([3]; OXGR1 F130D): > 1 mM
Emax ([3]; OXGR1 F130D): -5.6± 4 WT%
EC50 ([3]; OXGR1 F130E): > 1 mM
Emax ([3]; OXGR1 F130E): -5.3± 3 WT%
EC50 ([3]; OXGR1 F250A): > 1 mM
Emax ([3]; OXGR1 F250A): 2.2± 3 WT%
EC50 ([3]; OXGR1 F254A): > 1 mM
Emax ([3]; OXGR1 F254A): 0.87± 3 WT%
EC50 ([3]; OXGR1 F257A): 0.052 ± 0.01 mM
Emax ([3]; OXGR1 F257A): 54± 2 WT%
EC50 ([3]; OXGR1 F257Y): 0.13 ± 0.04 mM
Emax ([3]; OXGR1 F257Y): 120± 10 WT%
EC50 ([3]; OXGR1 H114A): > 1 mM
Emax ([3]; OXGR1 H114A): -4.6± 2 WT%
EC50 ([3]; OXGR1 H114L): > 1 mM
Emax ([3]; OXGR1 H114L): -5.6± 5 WT%
EC50 ([3]; OXGR1 H258A): > 1 mM
Emax ([3]; OXGR1 H258A): 3.0± 6 WT%
EC50 ([3]; OXGR1 H281A): 0.67 ± 0.06 mM
Emax ([3]; OXGR1 H281A): 74±3 WT%
EC50 ([3]; OXGR1 I121A): > 1 mM
Emax ([3]; OXGR1 I121A): 15± 5 WT%
EC50 ([3]; OXGR1 I172A): > 1 mM
Emax ([3]; OXGR1 I172A): -0.93± 2 WT%
EC50 ([3]; OXGR1 I285A): > 1 mM
Emax ([3]; OXGR1 I285A): 34±5 WT%
EC50 ([3]; OXGR1 L36A): > 1 mM
Emax ([3]; OXGR1 L36A): 6.5± 8 WT%
EC50 ([3]; OXGR1 L89A): > 1 mM
Emax ([3]; OXGR1 L89A): -4.5± 2.0 WT%
EC50 ([3]; OXGR1 L117A): 0.5 ± 0.02 mM
Emax ([3]; OXGR1 L117A): 63± 4 WT%
EC50 ([3]; OXGR1 L124A): > 1 mM
Emax ([3]; OXGR1 L124A): 36± 3 WT%
EC50 ([3]; OXGR1 L186A): > 1 mM
Emax ([3]; OXGR1 L186A): -4.0± 2 WT%
EC50 ([3]; OXGR1 L186F): 0.18 ± 0.05 mM
Emax ([3]; OXGR1 L186F): 80± 9 WT%
EC50 ([3]; OXGR1 L299P): > 1 mM
activation of OXGR1 L299P ([3]; OXGR1 L299P): abolished
EC50 ([3]; OXGR1 M168I): 0.51 ± 0.06 mM
Emax ([3]; OXGR1 M168I): 100± 8 WT%
EC50 ([3]; OXGR1 N28A): 0.12 ± 0.03 mM
Emax ([3]; OXGR1 N28A): 100± 8 WT%
EC50 ([3]; OXGR1 R110A): > 1 mM
Emax ([3]; OXGR1 R110A): 6.5± 2 WT%
EC50 ([3]; OXGR1 R110E): > 1 mM
Emax ([3]; OXGR1 R110E): -2.0± 3 WT%
EC50 ([3]; OXGR1 R110Q): > 1 mM
Emax ([3]; OXGR1 R110Q): -2.8± 0.7 WT%
EC50 ([3]; OXGR1 R177A): 0.32 ± 0.09 mM
Emax ([3]; OXGR1 R177A): 110± 3 WT%
EC50 ([3]; OXGR1 R261A): > 1 mM
Emax ([3]; OXGR1 R261A): 6.7± 2 WT%
EC50 ([3]; OXGR1 R264A): > 1 mM
Emax ([3]; OXGR1 R264A): 24± 3 WT%
EC50 ([3]; OXGR1 R268A): > 1 mM
Emax ([3]; OXGR1 R268A): -4.3± 4 WT%
EC50 ([3]; OXGR1 R288A): > 1 mM
Emax ([3]; OXGR1 R288A): 11±7 WT%
EC50 ([3]; OXGR1 R288E): > 1 mM
EC50 ([3]; OXGR1 R288Q): > 1 mM
Emax ([3]; OXGR1 R288Q): 14±1 WT%
EC50 ([3]; OXGR1 Y40A): > 1 mM
Emax ([3]; OXGR1 Y40A): 6.9± 9 WT%
EC50 ([3]; OXGR1 Y82A): > 1 mM
Emax ([3]; OXGR1 Y82A): 56± 7 WT%
EC50 ([3]; OXGR1 Y93A): > 1 mM
Emax ([3]; OXGR1 Y93A): 3.3± 2 WT%
EC50 ([3]; OXGR1 Y284A): > 1 mM
Emax ([3]; OXGR1 Y284A): -9±2 WT%
activation of SUCR1 (SUCR1): only minimal activation
Emax ([4]; HEK293, SUCR1 Y248F, Emax relative to the SUC): 15 ± 2%
Emax ([2]; HEK293, SUCR1 I157M, Emax relative to the SUC): -0.44 ± 1%

O=C(O)CCC(=O)O [SUC, succinate]
EC50 ([3]; OXGR1 D185A): > 1 mM
Emax ([3]; OXGR1 D185A): -4.4± 9 WT%
EC50 ([3]; OXGR1 E97A): 1.58 ± 0.26 mM
Emax ([3]; OXGR1 E97A): 74± 6 WT%
EC50 ([3]; OXGR1 F113A): > 1 mM
Emax ([3]; OXGR1 F113A): -0.39± 2 WT%
EC50 ([3]; OXGR1 F113W): 0.76 ± 0.21 mM
increase in potency by F113W mutation [3]: no significant change
Emax ([3]; OXGR1 F113W): 82± 5 WT%
EC50 ([3]; OXGR1 F257A): > 10 mM
Emax ([3]; OXGR1 F257A): 29± 1 WT%
EC50 ([3]; OXGR1 F257Y): 0.081 ± 0.004 mM
Emax ([3]; OXGR1 F257Y): 76± 2 WT%
EC50 ([3]; OXGR1 H114A): 3.6 ± 0.6 mM
Emax ([3]; OXGR1 H114A): 84± 4 WT%
EC50 ([3]; OXGR1 H114L): > 1 mM
Emax ([3]; OXGR1 H114L): 1.9± 3 WT%
EC50 ([3]; OXGR1 H281A): 4.5 ± 1.3 mM
Emax ([3]; OXGR1 H281A): 87±10 WT%
EC50 ([3]; OXGR1 I172A): > 1 mM
Emax ([3]; OXGR1 I172A): 0.013± 2 WT%
EC50 ([3]; OXGR1 L36A): > 1 mM
Emax ([3]; OXGR1 L36A): 6.1± 0.2 WT%
EC50 ([3]; OXGR1 L89A): > 1 mM
Emax ([3]; OXGR1 L89A): 2.8± 0.9 WT%
EC50 ([3]; OXGR1 L186A): > 1 mM
Emax ([3]; OXGR1 L186A): -0.43± 1 WT%
EC50 ([3]; OXGR1 L186F): 0.77 ± 0.06 mM
Emax ([3]; OXGR1 L186F): 75± 5 WT%
EC50 ([3]; OXGR1 L299P): > 1 mM
Emax ([3]; OXGR1 L299P): 10.5±3 WT%
activation of OXGR1 L299P ([3]; OXGR1 L299P): abolished
EC50 ([3]; OXGR1 M168I): 1.1 ± 0.06 mM
Emax ([3]; OXGR1 M168I): 88± 2 WT%
EC50 ([3]; OXGR1 N28A): 0.3 ± 0.05 mM
Emax ([3]; OXGR1 N28A): 94± 0.8 WT%
EC50 ([3]; OXGR1 R110A): > 1 mM
Emax ([3]; OXGR1 R110A): 7.0± 1 WT%
EC50 ([3]; OXGR1 R110E): > 1 mM
Emax ([3]; OXGR1 R110E): 8.9± 5 WT%
EC50 ([3]; OXGR1 R110Q): > 1 mM
Emax ([3]; OXGR1 R110Q): 1.7± 2 WT%
EC50 ([3]; OXGR1 R177A): 0.37 ± 0.07 mM
Emax ([3]; OXGR1 R177A): 89± 6 WT%
EC50 ([3]; OXGR1 R264A): > 10 mM
Emax ([3]; OXGR1 R264A): 57± 5 WT%
EC50 ([3]; OXGR1 R268A): > 1 mM
Emax ([3]; OXGR1 R268A): 6.3± 4 WT%
EC50 ([3]; OXGR1 R288A): > 1 mM
EC50 ([3]; OXGR1 R288E): > 1 mM
Emax ([3]; OXGR1 R288E): -16±0.6 WT%
EC50 ([3]; OXGR1 R288Q): > 1 mM
EC50 ([3]; OXGR1 Y40A): > 1 mM
Emax ([3]; OXGR1 Y40A): -1.5± 2 WT%
EC50 ([3]; OXGR1 Y93A): > 1 mM
Emax ([3]; OXGR1 Y93A): 5.5± 3 WT%
EC50 ([3]; OXGR1 Y284A): > 1 mM
Emax ([3]; OXGR1 Y284A): 4.1±2 WT%
EC50 ([1]; SUCR1 F285A-L102F): 0.46 ± 0.08 mM
EC50 ([4]; SUCR1 Y248F): 0.81 ± 0.09 mM
